From patent US11464749B2, “Bismuth-thiol compositions and methods of use” (Microbion Corporation, priority 2018, dated 2022)
Values after ≈ are worked out from the molar mass of the structure shown. Like-named read-outs stand apart in the source and are kept apart here.

Experiments:
P. aeruginosa = test: FIC checkerboard assay; assay type: cell-based; conditions: for MICB / FICB: by checkerboard; for FICB: Colistin in combination with BisEDT; for MIC: Pseudomonas aeruginosa, Aztreonam alone (checkerboard with BisEDT), read-out: Drug B MIC
Burkholderia spp. = test: organism not typed; assay type: cell-based
B. cepacia [1] = test: FIC checkerboard assay; assay type: cell-based
B. cenocepacia [2] = test: FIC checkerboard assay; assay type: cell-based; conditions: during FIC testing
B. cepacia [3] = test: Broth microdilution MIC (Example 10); conditions: initial MIC testing
B. cenocepacia [4] = test: Broth microdilution MIC (Example 10); conditions: initial MIC testing; B. cenocepacia isolate 0548 (CIP-R)
A. niger = test: Broth microdilution antifungal susceptibility (Example 13); assay type: cell-based; conditions: A. niger ATCC 29508
A. terreus = test: as above; assay type: cell-based; conditions: A. terreus MMX 8229
A. fumigatus = test: as above; assay type: cell-based
A. flavus = test: as above; assay type: cell-based
Escherichia coli = test: Broth microdilution MIC (Example 12)
Klebsiella pneumoniae = test: Broth microdilution MIC (Example 12)
Pseudomonas aeruginosa = test: Broth microdilution MIC (Example 12)
Acinetobacter baumannii = test: Broth microdilution MIC (Example 12)
[5] = during FIC testing, B. cepacia isolate 0546

Compound: Colistin
- MICB (P. aeruginosa; P. aeruginosa 6322, Colistin MIC in combination with BisEDT): 0.5 µg/mL
- FICB (P. aeruginosa; P. aeruginosa 6322): 1
- MICB (P. aeruginosa; P. aeruginosa 6977, Colistin MIC in combination with BisEDT): 1 µg/mL
- FICB (P. aeruginosa; P. aeruginosa 6977): 1
- MICB (P. aeruginosa; P. aeruginosa 7745, Colistin MIC in combination with BisEDT): 0.5 µg/mL
- FICB (P. aeruginosa; P. aeruginosa 7745): 1
- FICB (Burkholderia spp.; B. multivorans 1795, FIC of Colistin in combination with BisEDT, per checkerboard row): 1

Compound: NC[C@H]1O[C@H](O[C@H]2[C@H](O)[C@@H](O[C@H]3O[C@H](CO)[C@@H](O)[C@H](N)[C@H]3O)[C@H](N)C[C@@H]2N)[C@H](N)C[C@@H]1O [TOB]
- MIC (B. cepacia [1]; [5]): 32 µg/mL
- MIC (B. cenocepacia [2]; B. cenocepacia isolate 0548 (CIP-R)): 32 µg/mL
- MIC (B. cepacia [3]; B. cepacia isolate 0546): 64 µg/mL (≈ 137 µM)
- MIC (B. cepacia [3]; B. cepacia isolate 1793): 64 µg/mL (≈ 137 µM)
- MIC (B. cepacia [3]; B. cepacia isolate 1794): 64 µg/mL (≈ 137 µM)
- MIC (B. cenocepacia [4]): 64 µg/mL (≈ 137 µM)

Compound: OC(Cn1cncn1)(Cn1cncn1)c1ccc(F)cc1F [FLU]
- MIC2 (A. niger): >64 µg/mL
- MIC2 (A. terreus): >64 µg/mL
- MIC2 (A. fumigatus; A. fumigatus ATCC 204305): >64 µg/mL
- MIC2 (A. fumigatus; A. fumigatus ATCC MYA-3626): >64 µg/mL
- MIC2 (A. fumigatus; A. fumigatus MMX 5934): >64 µg/mL
- MIC2 (A. fumigatus; A. fumigatus MMX 5938): >64 µg/mL
- MIC2 (A. fumigatus; A. fumigatus MMX 5939): >64 µg/mL
- MIC2 (A. flavus; A. flavus ATCC 22546): >64 µg/mL
- MIC2 (A. flavus; A. flavus ATCC 204304): >64 µg/mL
- MIC2 (A. flavus; A. flavus MMX 7935): >64 µg/mL

Compound: NCC[C@H](O)C(=O)N[C@@H]1C[C@H](N)[C@@H](O[C@H]2O[C@H](CN)[C@@H](O)[C@H](O)[C@H]2O)[C@H](O)[C@H]1O[C@H]1O[C@H](CO)[C@@H](O)[C@H](N)[C@H]1O [AMK]
- MIC (B. cepacia [1]; [5]): 64 µg/mL
- MIC (B. cepacia [1]; during FIC testing, B. cepacia isolate 1793): 32 µg/mL
- MIC (B. cepacia [3]; B. cepacia isolate 0546): 64 µg/mL (≈ 109 µM)
- MIC (B. cepacia [3]; B. cepacia isolate 1793): 64 µg/mL (≈ 109 µM)
- MIC (Escherichia coli; E. coli ATCC 35218, ESBL): 1 µg/mL (≈ 1.71 µM)
- MIC (Escherichia coli; E. coli ATCC 35218, QC organism (Table 102)): 1 µg/mL (≈ 1.71 µM)
- MIC (Escherichia coli; E. coli ATCC BAA-2471, NDM): 64 µg/mL (≈ 109 µM)
- MIC (Escherichia coli; E. coli CDC 114, ESBL/KPC): 1 µg/mL (≈ 1.71 µM)
- MIC (Escherichia coli; E. coli CDC 118, ESBL/NDM): >64 µg/mL
- MIC (Escherichia coli; E. coli CDC 435, NDM): >64 µg/mL
- MIC (Escherichia coli; E. coli CDC 451, KPC): 4 µg/mL (≈ 6.83 µM)
- MIC (Escherichia coli; E. coli CDC 503, ESBL/NDM): >64 µg/mL
- MIC (Escherichia coli; E. coli MMX 5745, KPC): 0.5 µg/mL (≈ 0.854 µM)
- MIC (Escherichia coli; E. coli MMX 5755, ESBL): 16 µg/mL (≈ 27.3 µM)
- MIC (Escherichia coli; E. coli MMX 5756, ESBL): 64 µg/mL (≈ 109 µM)
- MIC (Escherichia coli; E. coli MMX 5758, ESBL): 1 µg/mL (≈ 1.71 µM)
- MIC (Klebsiella pneumoniae; K. pneumoniae ATCC BAA-1705, ESBL/KPC): 16 µg/mL (≈ 27.3 µM)
- MIC (Klebsiella pneumoniae; K. pneumoniae ATCC BAA-1705, QC organism (Table 102)): 16 µg/mL (≈ 27.3 µM)
- MIC (Klebsiella pneumoniae; K. pneumoniae CDC 112, KPC): 16 µg/mL (≈ 27.3 µM)
- MIC (Klebsiella pneumoniae; K. pneumoniae CDC 113, ESBL/KPC): 16 µg/mL (≈ 27.3 µM)
- MIC (Klebsiella pneumoniae; K. pneumoniae CDC 115, ESBL/KPC): 0.5 µg/mL (≈ 0.854 µM)
- MIC (Klebsiella pneumoniae; K. pneumoniae CDC 120, ESBL/KPC): 16 µg/mL (≈ 27.3 µM)
- MIC (Klebsiella pneumoniae; K. pneumoniae CDC 126, ESBL/KPC): 2 µg/mL (≈ 3.42 µM)
- MIC (Klebsiella pneumoniae; K. pneumoniae CDC 129, ESBL/KPC): 32 µg/mL (≈ 54.6 µM)
- MIC (Klebsiella pneumoniae; K. pneumoniae CDC 135, ESBL/VIM): 16 µg/mL (≈ 27.3 µM)
- MIC (Klebsiella pneumoniae; K. pneumoniae CDC 138, ESBL/NDM): >64 µg/mL
- MIC (Klebsiella pneumoniae; K. pneumoniae CDC 158, ESBL/NDM/OXA): 2 µg/mL (≈ 3.42 µM)
- MIC (Klebsiella pneumoniae; K. pneumoniae MMX 9029, ESBL): 0.5 µg/mL (≈ 0.854 µM)
- MIC (Pseudomonas aeruginosa; P. aeruginosa CDC 230, VIM/OXA): >64 µg/mL
- MIC (Pseudomonas aeruginosa; P. aeruginosa CDC 231, KPC/OXA): 8 µg/mL (≈ 13.7 µM)
- MIC (Pseudomonas aeruginosa; P. aeruginosa CDC 241, IMP/OXA): 32 µg/mL (≈ 54.6 µM)
- MIC (Pseudomonas aeruginosa; P. aeruginosa CDC 246, NDM/OXA): >64 µg/mL
- MIC (Pseudomonas aeruginosa; P. aeruginosa CDC 250, NDM/OXA): >64 µg/mL
- MIC (Pseudomonas aeruginosa; P. aeruginosa CDC 356, KPC): 2 µg/mL (≈ 3.42 µM)
- MIC (Pseudomonas aeruginosa; P. aeruginosa CDC 439, IMP): >64 µg/mL
- MIC (Pseudomonas aeruginosa; P. aeruginosa CDC 444, VIM): >64 µg/mL
- MIC (Pseudomonas aeruginosa; P. aeruginosa CDC 457, VIM): 2 µg/mL (≈ 3.42 µM)
- MIC (Pseudomonas aeruginosa; P. aeruginosa CDC 516, KPC/AmpC): 2 µg/mL (≈ 3.42 µM)
- MIC (Pseudomonas aeruginosa; P. aeruginosa CDC 518, KPC/AmpC): 16 µg/mL (≈ 27.3 µM)
- MIC (Acinetobacter baumannii; A. baumannii CDC 273, ESBL/OXA): >64 µg/mL
- MIC (Acinetobacter baumannii; A. baumannii CDC 274, ESBL/OXA): 16 µg/mL (≈ 27.3 µM)
- MIC (Acinetobacter baumannii; A. baumannii CDC 275, ESBL/OXA): >64 µg/mL
- MIC (Acinetobacter baumannii; A. baumannii CDC 277, ESBL/OXA): 16 µg/mL (≈ 27.3 µM)
- MIC (Acinetobacter baumannii; A. baumannii CDC 284, ESBL/OXA): 32 µg/mL (≈ 54.6 µM)
- MIC (Acinetobacter baumannii; A. baumannii CDC 307, OXA): >64 µg/mL
- MIC (Acinetobacter baumannii; A. baumannii CDC 308, ESBL/OXA): >64 µg/mL
- MIC (Acinetobacter baumannii; A. baumannii CDC 311, OXA): >64 µg/mL
- MIC (Acinetobacter baumannii; A. baumannii CDC 312, OXA): 1 µg/mL (≈ 1.71 µM)
- MIC (Acinetobacter baumannii; A. baumannii CDC 313, ESBL/OXA): 4 µg/mL (≈ 6.83 µM)
- MIC (Acinetobacter baumannii; A. baumannii NCTC 13304, OXA): 0.5 µg/mL (≈ 0.854 µM)

Compound: C[C@H]1[C@H](NC(=O)/C(=N\OC(C)(C)C(=O)O)c2csc(N)n2)C(=O)N1S(=O)(=O)O [Aztreonam]
- MICB (P. aeruginosa; P. aeruginosa 7745, Aztreonam MIC in combination with BisEDT): 16 µg/mL
- MICB (P. aeruginosa; P. aeruginosa 9108, Aztreonam MIC in combination with BisEDT): 16 µg/mL
- MIC (P. aeruginosa; P. aeruginosa 6322): 32 µg/mL
- MIC (P. aeruginosa; P. aeruginosa 6977): 64 µg/mL
- MIC (P. aeruginosa; P. aeruginosa 7745): 16 µg/mL
- MIC (P. aeruginosa; P. aeruginosa 8798): > 256 µg/mL
- MIC (P. aeruginosa; P. aeruginosa 9108): 16 µg/mL
- MIC (B. cepacia [1]; Burkholderia cepacia, B. cepacia 546, Aztreonam alone (checkerboard with BisEDT), read-out: Drug B MIC): 32 µg/mL
- MIC (B. cepacia [1]; Burkholderia cepacia, B. cepacia 1793, Aztreonam alone (panel with BisEDT), read-out: Drug B MIC): 128 µg/mL
- MIC (Burkholderia spp.; read-out: Drug B MIC): 16 µg/mL (≈ 36.7 µM)

Compound: C[C@H]1[C@H](NC(=O)/C(=N\OC(C)(C)C(=O)O)c2csc(N)n2)C(=O)N1S(=O)(=O)O [AZT]
- MIC (B. cepacia [1]; [5]): 32 µg/mL
- MIC (B. cenocepacia [2]; B. cenocepacia isolate 0813 (CIP-I)): 32 µg/mL
- MIC (B. cenocepacia [4]): 64 µg/mL (≈ 147 µM)
